“And” between values parts separate entries of the source, which are not always exact repeats. Equal values may be shown once. Read-outs that look alike come from different tables or passages of the source.
Columns and labels:
[1] = system: SMMC-7721 (hepatocarcinoma); experiment: cells; format: cell-based, human; settings: read-out: Cancer cell line IC50, SMMC-7721
[2] = system: BEAS-2B normal cell line (human bronchial epithelial cell); settings: for IC50: read-out: Cancer cell line IC50, BEAS-2B
[3] = system: MCF-7 (breast adenocarcinoma); experiment: cells; format: cell-based, human; settings: read-out: Cancer cell line IC50, MCF-7
A549 (lung carcinoma) = experiment: cells; format: cell-based, human
[4] = system: HL-60 (promyelocytic leukemia); experiment: cells; format: cell-based, human; settings: read-out: Cancer cell line IC50, HL-60
[5] = system: SW-480 (colon adenocarcinoma); experiment: cells; format: cell-based, human; settings: read-out: Cancer cell line IC50, SW480
[6] = system: BEAS-2B normal cell line (human bronchial epithelial cell); experiment: cells; settings: read-out: Cancer cell line IC50, BEAS-2B
[7] = system: HL-60, SMMC-7721, A549, MCF-7 and SW-480 human cancer cell lines; experiment: cells; format: cell-based; settings: read-out: IC50 values across the five cancer cell lines
[8] = read-out: Cancer cell line IC50, A549
[9] = Homo sapiens, A549, 48 h, read-out: Cancer cell line IC50, A549
[10] = Homo sapiens, A549, read-out: Cancer cell line IC50, A549

Row | SMILES | IC50 [1] | IC50 [2] | IC50 [3] | IC50 (A549 (lung carcinoma); [8]) | IC50 [4] | IC50 [5] | IC50 [6] | IC50 ([1]; Homo sapiens, SMMC-7721, 48 h) | IC50 ([3]; Homo sapiens, MCF7, 48 h) | IC50 (A549 (lung carcinoma); [9]) | IC50 (A549 (lung carcinoma); [10]) | IC50 ([4]; Homo sapiens, HL-60, 48 h) | IC50 ([5]; Homo sapiens, SW480, 48 h) | IC50 ([7]; Homo sapiens, 48 h) | selective cytotoxicity against the A549 cell line [2] | IC50 [7]
1 | N.N.[Cl][Pt][Cl] [Cisplatin, cisplatin, reference compound] | 5.81 µM | 9.53 µM | 13.3 µM | 6.43 µM and 9.72 µM | 1.91 µM | 12 µM |  |  |  |  |  |  |  |  |  | 
2 | CC(=O)O[C@H]1C(=O)[C@@]2(C)[C@H]([C@H](OC(=O)c3ccccc3)[C@]3(O)C[C@H](OC(=O)[C@H](O)[C@@H](NC(=O)c4ccccc4)c4ccccc4)C(C)=C1C3(C)C)[C@]1(OC(C)=O)CO[C@@H]1C[C@@H]2O [Taxol, paclitaxel, reference compound] |  |  |  |  |  |  | < 0.98 µM | < 0.008 µM | < 0.008 µM | < 0.008 µM | < 0.008 µM | < 0.008 µM | < 0.008 µM |  |  | 
3 | CC1=C[C@]23O[C@@H]4CC[C@](C)([C@@]2(C)CC1)[C@]4(CO)O3 [Compound 4, 3-deoxysambucinol] |  |  |  |  |  |  |  | > 40 µM | > 40 µM | > 40 µM |  | > 40 µM | > 40 µM | > 40 µM |  | 
4 | CC1=C[C@H]2O[C@@H]3C[C@@H](O)[C@](C)([C@@]2(C)CC1=O)[C@]31CO1 [Compound 5, trichothecolone] | 6.92 µM | 4.18 µM | 16.5 µM | 4.16 µM and 5.71 µM | 4.86 µM | 8.52 µM |  |  |  |  |  |  |  |  | did not exhibit selective cytotoxicity | 
5 | CC1=C[C@]23O[C@@H]4[C@@H](O)C[C@](C)([C@@]2(C)CC1)[C@]4(CO)O3 [Compound 3, sambucinol] |  |  |  |  |  |  |  | > 40 µM | > 40 µM | > 40 µM |  | > 40 µM | > 40 µM | > 40 µM |  | 
6 | C=C1[C@H]2C[C@@H](OC(=O)/C=C\C)[C@]1(C)[C@@]1(C)CC(=O)C(C)=C[C@H]1O2 [Compound 2, engleromycone B] |  |  |  |  |  |  | 9.87 µM | 8.41 µM | 21.1 µM | 2.98 µM | 5.82 µM | 2.7 µM | 9.25 µM | 2.7 to 21.1 µM | did not exhibit selective cytotoxicity | 
7 | C/C=C\C(=O)O[C@@H]1[C@@H](O)[C@H]2O[C@@H]3C=C(C)C(=O)C[C@]3(C)[C@]1(C)[C@]21CO1 [Compound 10, trichothecinol A] | 0.02 µM | 0.025 µM | 0.006 µM | 0.015 µM and 0.016 µM | 0.022 µM | 0.011 µM |  |  |  |  |  |  |  |  | did not exhibit selective cytotoxicity | < 3.5 µM
8 | C/C=C\C(=O)O[C@@H]1C[C@H]2O[C@@]34C=C(C)C(=O)C[C@]3(C)[C@]1(C)[C@]2(CO)O4 [Compound 1, engleromycone A] |  |  |  |  |  |  | 19.4 µM | 19.1 µM | 18 µM | 19.1 µM | 18.9 µM | 14.3 µM | 20.2 µM | 14.3 to 20.2 µM | did not exhibit selective cytotoxicity | 
9 | C/C=C\C(=O)O[C@@H]1C[C@H]2O[C@@H]3C=C(C)C(=O)C[C@]3(C)[C@]1(C)[C@]21CO1 [Compound 8, trichothecin] | 0.22 µM | 0.27 µM | 0.21 µM | 0.2 µM and 0.22 µM | 0.14 µM | 0.18 µM |  |  |  |  |  |  |  |  | did not exhibit selective cytotoxicity | < 3.5 µM

Reference: publication PMC4328002 (Natural Products and Bioprospecting, 2015)
